In patent publication EP0334244A2, “Bradykinin Antagonist Peptides” (THE PROCTER & GAMBLE COMPANY, priority 1988, dated 1989):
Several values for one entry are separate records, joined by “and”; a condition that tells them apart may be missing. Equal entries are not always repeated. Non-standard residues stand in square brackets, D forms with d. Residues, ends and D or L forms follow the SMILES beside them. Hyp = O=C(O)[C@@H]1C[C@@H](O)CN1

Legend:
Male CF-1 mice = assay: Mouse abdominal constriction test (phenylquinone-induced writhing); format: in vivo; conditions: for Change from Control (%): I.P.; for bradykinin agonist / antagonist activity in the assay: result in words, mouse abdominal constriction assay
Description: Compounds of the present invention are tested for analgesic activity using the mouse abdominal constriction assay. This assay is described in Hendershot, L.C., & J. Forsaith, "Antagonism of the Frequency of Phenylquinone-induced Writhing in the Mouse by Weak Analgesics and Nonanalgesics", J. Pharmacol., Vol. 125, (1959), pp. 237-240, and in Methods in Narcotics Research, S. Ehrenpreis and A. Neidle, (eds.), Marcel Dekker, Inc., New York (pub.), 1975, pp. 64-65, the disclosures of both these references being incorporated herein in their entirety by reference.
Male CF-1 mice (Charles River Breeding Laboratories, Inc.), weighing approximately 20 grams and food fasted overnight, are used in these assays. Test compounds are prepared for intraperitoneal (i.p.) injection, with compounds of the present invention being prepared in distilled deionized water so that the appropriate dose is given in 0.2 mls to a 20 gram mouse.
An i.p. injection of 0.02% phenylquinone (2.5 mg/kg) is given at a concentration of 0.25 ml/20 grams body weight. Five minutes later the mice receive an i.p. injection of test compound. Five minutes after the i.p. injection of test compound, the number of full body writhes are counted for the succeeding ten minutes. Percent analgesia in this assay is calculated as follows: [formula]
The mouse abdominal constriction assay was used to measure the antagonist activity of peptides of the present invention and related peptides as shown in Table 2: Table 2

Bradykinin receptor = molecular target: T1, Bradykinin receptor (Mus musculus, UniProt P32299); assay: Cell culture method: inhibition of bradykinin-induced increase in cytosolic free calcium in fura-2 loaded NG108-15 cells; format: cell-based; conditions: for agonist / antagonist activity in this assay: result in words
T1 construct: suspensions of cultured NG108-15 cells loaded with the Ca²⁺-sensitive fluorescent indicator fura-2; endogenous in cells; host or cells: NG108-15 cells (University of California at San Francisco, Cell Culture Facility)
T1 sequence (P32299 1-392): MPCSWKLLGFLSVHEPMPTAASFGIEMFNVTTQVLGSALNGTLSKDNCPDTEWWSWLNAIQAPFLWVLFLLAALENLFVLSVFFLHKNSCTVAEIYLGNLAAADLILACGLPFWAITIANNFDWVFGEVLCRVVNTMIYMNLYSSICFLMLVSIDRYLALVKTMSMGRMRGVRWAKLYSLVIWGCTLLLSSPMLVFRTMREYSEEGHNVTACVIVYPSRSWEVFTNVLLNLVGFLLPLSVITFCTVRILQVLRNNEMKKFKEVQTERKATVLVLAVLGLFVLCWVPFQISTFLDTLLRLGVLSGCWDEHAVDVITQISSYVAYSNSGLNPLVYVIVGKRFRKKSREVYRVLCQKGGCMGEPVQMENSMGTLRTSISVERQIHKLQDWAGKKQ
Description: In many different tissues and isolated cell populations, bradykinin induces a receptor mediated rise in the concentration of cytosolic free calcium ([Ca²⁺]i). In cultured NG108-15 neuronal cells (University of California at San Francisco, Cell Culture Facility, San Francisco, California), bradykinin increases [Ca²⁺]i in a dose dependent manner from a basal concentration of about 260 nM to approximately 1000 nM at a maximally effective concentration of bradykinin (1 X 10⁻⁶M). The half maximally effective concentration (EC₅₀) of bradykinin is 3 X 10⁻⁹M. Bradykinin receptor antagonist potency is evaluated by determining the concentration of antagonist required to inhibit by 50% (IC₅₀) the increase in [Ca²⁺]i induced by 1 X 10⁻⁹M bradykinin (Bachem, Torrance, CA). NG108-15 cells are cultured in […] Corning flasks (Fisher Scientific, Cincinnati, OH) in Dulbecco's modified minimal essential medium (high glucose; Gibco, Grand Island, NY) containing 5% fetal bovine serum (Hyclone, Logan, UT) and HAT (hypoxanthine-aminopterin-thymidine, Sigma, St. Louis, MO). The concentration of cytosolic free Ca²⁺ ([Ca²⁺]i) is measured in suspensions of cultured NG108-15 cells loaded with the Ca²⁺-sensitive fluorescent indicator fura-2 essentially as described by Osugi et al. (Journal Pharmacol. Exp. Ther., Vol. 240, (1987), pp. 617-622). Flasks of confluent cells are incubated for 60 minutes at 37°C in 20 mls of HEPES-buffered saline [140 mM NaCl, 5.4 mM KCl, 0.8 mM MgSO₄, 1.0 mM CaCl₂, 20 mM HEPES (N-2-. hydroxyethylpiperazine-N′-2-ethanesulfonic acid; Behring Diagnostics, LaJolla, CA), 10 mM glucose, 0.25% bovine serum albumin (Cat. #A-4503; Sigma Chemical Co., St. Louis, MO)] containing fura-2 acetoxymethyl ester (Molecular Probes, Inc., Eugene, OR) at a final concentration of 2 µM. The flasks are then washed twice with 30 mls of HEPES-buffered saline and the cells detached from the flasks in 15 mls of HEPES-buffered saline. The cell suspension is centrifuged at 25°C for 5 minutes at 350 x g and the cell pellet resuspended to a final volume of approximately 10 ml of HEPES-buffered saline/flask. The cell suspension is maintained at room temperature prior to use. The fluorescence of the fura-2 loaded NG108-15 cells is measured at an excitation wavelength of 340 nm (10 nM slit) and an emission wavelength of 500 nm (10 nM slit) in a Perkin-Elmer LS-5 fluorescence spectrophotometer fitted with a magnetic stirrer and a thermostatted cell holder. An aliquot of the cell suspension (1.37 ml) is placed in a cylindrical glass cuvette (internal diameter of 8 mm) containing a teflon coated stir bar and warmed to 37°C in a water bath. After 5 minutes, the cuvette is placed in the cell holder of the fluorometer and stirring is initiated just prior to the addition of a test sample. Routinely, a test sample (0.014 ml of a 100-fold concentration solution) is added to the cuvette 30 seconds prior to the addition of 1 X 10⁻⁹ M bradykinin. Fluorescence is recorded continuously during the addition of the test sample and bradykinin. Following completion of the fluorescence measurements, the cells are lysed with Triton X-100 at a final concentration of 10% (v/v) and the fluorescence of the Ca²⁺ saturated fura-2 (Fmax; fluorescence in the presence of 1 mM Ca²⁺) and the Mn²⁺-quenched fura-2 (autofluorescence (AF); fluorescence in the presence of 2 mM Mn²⁺) determined. […]

guinea pig ileum = assay: Guinea pig ileum assay (muscle contraction); conditions: negative log of the dose causing half maximal contraction
Description: The bradykinin antagonists are assayed on guinea pig ileum for inhibition of the muscle-contracting activity of bradykinin, according to the commonly accepted assay method for bradykinin and related kinins as described in Stewart, J.M., "Chemistry and Biological Activity of Peptides Related to Bradykinin", Chapter V of Bradykinin, Kallidin and Kallikrein, (Handbook of Expt. Pharmacol.), E. G. Erdoes (ed.), Vol 25, Springer Verlag (pub.), 1970, pp. 242-243. The inhibition potencies are determined on isolated guinea pig ileum, according to the commonly accepted manner described for antagonists of biologically active compounds in Schild, H.O., "pA, a New Scale for the Measurement of Drug Antagonism", Br. J. Pharmacol., Vol. 2, No. 3 (1947), pp. 189-206). In the assay, a dose-response curve is determined for the reference substance bradykinin. The dose of bradykinin which produces a half maximal contraction of tissue is the ED₅₀ dose. An amount of bradykinin equivalent to twice the ED₅₀ dose is administered to the tissue 30 seconds after the start of incubation of the tissue with a dose of antagonist. Doses of antagonist are increased in this protocol until pre-incubation with a dose of antagonist reduces the contraction in response to the double ED₅₀ dose of bradykinin to response of a single ED₅₀ dose of bradykinin. […]

Row | Molecule | Change from Control (%) (Male CF-1 mice; Dose 50 mg/kg) | bradykinin agonist / antagonist activity in the assay (Male CF-1 mice) | agonist / antagonist activity in this assay (Bradykinin receptor) | other results
1 | N=C(N)NCCC[C@H](NC(=O)[C@H](Cc1ccccc1)NC(=O)[C@@H](Cc1ccccc1)NC(=O)[C@H](CO)NC(=O)[C@H](Cc1ccccc1)NC(=O)CNC(=O)[C@H](CC(N)=O)NC(=O)[C@@H]1CCCN1C(=O)[C@@H](N)CCCNC(=N)N)C(=O)O [Compound 2, H-Arg-Pro-Asn-Gly-Phe-Ser-DPhe-Phe-Arg-OH] (H-RPNGFS[dF]FR-OH) | 57% | bradykinin antagonist activity | Compounds 2 and 6 are peptides of the present invention and both exhibit only antagonist (no agonist) activity in this assay. | –
2 | N=C(N)NCCC[C@H](NC(=O)[C@H](Cc1ccccc1)NC(=O)[C@@H](Cc1ccccc1)NC(=O)[C@H](CO)NC(=O)[C@H](Cc1ccccc1)NC(=O)CNC(=O)[C@@H]1C[C@@H](O)CN1C(=O)[C@@H]1CCCN1C(=O)[C@@H](N)CCCNC(=N)N)C(=O)O [Compound 1, H-Arg-Pro-Hyp-Gly-Phe-Ser-DPhe-Phe-Arg-OH, reference compound] (H-RP[Hyp]GFS[dF]FR-OH) | – | bradykinin agonist | high agonist (bradykinin-like) activity | Change from Control (%) (Male CF-1 mice; Dose 25 mg/kg, negative value = agonist): -31%; IC₅₀ (Bradykinin receptor; inhibition by 50% of the increase in [Ca²⁺]i induced by 1 X 10⁻⁹M bradykinin): Partial Agonist*
3 | N=C(N)NCCC[C@@H](N)C(=O)N[C@@H](CCCNC(=N)N)C(=O)N1CCC[C@H]1C(=O)N[C@@H](CC(N)=O)C(=O)NCC(=O)N[C@@H](Cc1ccccc1)C(=O)N[C@@H](CO)C(=O)N[C@H](Cc1ccccc1)C(=O)N[C@@H](Cc1ccccc1)C(=O)N[C@@H](CCCNC(=N)N)C(=O)O [Compound 6, H-DArg-Arg-Pro-Asn-Gly-Phe-Ser-DPhe-Phe-Arg-OH] (H-[dR]RPNGFS[dF]FR-OH) | – | – | Compounds 2 and 6 are peptides of the present invention and both exhibit only antagonist (no agonist) activity in this assay. | –
4 | H-DArg-Arg-Pro-Hyp-Gly-Phe-Ser-DPhe-Phe-Arg-OH [Compound 5] | – | – | small amount of agonist activity | agonist activity (Bradykinin receptor; printed beside the IC₅₀): 10%
5 | bradykinin (RPPGFSPFR; Bradykinin; UniProt P01042 381-389, looked up) [naturally occurring agonist nonapeptide] | – | – | – | [Ca²⁺]i at maximally effective concentration (Bradykinin receptor; 1 X 10⁻⁶M bradykinin, basal concentration about 260 nM): approximately 1000 nM; pD2 value (guinea pig ileum): 7.4
6 | N=C(N)NCCC[C@H](NC(=O)[C@H](Cc1ccccc1)NC(=O)[C@@H](Cc1ccccc1)NC(=O)[C@H](CO)NC(=O)[C@H](Cc1ccccc1)NC(=O)[C@H]1CCCN1C(=O)[C@H](CC(N)=O)NC(=O)[C@@H]1CCCN1C(=O)[C@@H](N)CCCNC(=N)N)C(=O)O [Compound 3, H-Arg-Pro-Asn-DPro-Phe-Ser-DPhe-Phe-Arg-OH] (H-RPN[dP]FS[dF]FR-OH) | 72% and 61% | bradykinin antagonist activity | – | –
7 | H-Arg-Pro-Aap-Gly-Phe-Ser-DPhe-Phe-Arg-OH [Compound 4] | 46% | bradykinin antagonist activity | – | –
